Results taken from PMC10600239, “Selective MCL-1 inhibitor ABBV-467 is efficacious in tumor models but is associated with cardiac troponin increases in patients” (Communications Medicine, 2023).
Several values for one entry are separate records, joined by “and”; a condition that tells them apart may be missing. Equal entries are not always repeated.

Tested on: AMO-1 xenografts
Test: AMO-1 xenograft efficacy (tumor volume, body weight)
Type: in vivo, mouse
Details: for % Weight Change (individual weights) / Weight, g (individual weights): individual animal, Day 21; for Xenograft AMO-1 (DSMZ) (mm³) Day 16 / Xenograft AMO-1 (DSMZ) (mm³) Day 19: tumor volume
Protocol: All animal studies were conducted in accordance with the guidelines approved by the Institutional Animal Care and Use Committees of AbbVie. The research protocol was approved by In Vivo Pharmacology at AbbVie prior to study initiation but was not publicly registered or disclosed. Female C.B-17 SCID-beige mice (AMO-1, OPM-2, NCI-H929, and OCI-AML2 xenografts) and female NSG mice (MV4-11-Red.Fluc systemic) were purchased from Charles River Laboratories (Wilmington, MA). Animals were housed in a light cycle-controlled room with HEPA filtration at 22 °C. Animals had nesting and climbing cage topper as the primary environmental enrichment. Animals were inoculated subcutaneously in the right flank with 5 × 10^6 (AMO-1, OPM-2, NCI-H929, and OCI-AML2) or intravenous (IV) with 5 × 10^6 (MV4-11-Red.Fluc). The inoculation volume (0.2 mL) comprised a 50:50 mixture of cells in growth media and Matrigel (BD Biosciences) for subcutaneous injections and 100% phosphate-buffered saline for IV administration. All cell lines used in this publication were authenticated using IDEXX for STR profiling as well as their IMPACT and human IMPACT panels for pathogen screening. Electronic calipers were used to measure the length and width of each tumor 2 to 3 times per week. Tumor volume was estimated by applying the following equation: volume = length × width^2/2. All groups remained blinded during measurements and dosing; only veterinary staff were aware of group identity. When tumors reached approximately 200 mm^3, mice were randomized by match and distributed into treatment and control groups. All xenograft trials were conducted using 5 to 10 mice per group, and all mice were ear tagged and monitored individually throughout the studies. […] Tumor burden in the systemic MV4-11-Red.Fluc experiment was measured using an IVIS® spectrum from PerkinElmer by taking the total photon flux of the entire dorsal side of an individual mouse. […] A background control mouse that was tumor naive but received D-Luciferin was placed in the upper left corner of each image. The total flux from this animal was subtracted from the total flux of each animal present in the image.
For in vivo studies, maximal tumor growth inhibition (TGI) was calculated as the greatest treatment response using the following equation: Maximal TGI = (1 − mean tumor volume of the treated group/mean tumor volume of the vehicle control group) × 100. The tumor growth delay (TGD) percentage was determined as the percentage increase of the median time period for the treatment group to reach an arbitrary tumor volume of 1000 mm^3 relative to the vehicle control group. […] A power analysis was conducted using historical data to determine the number of animals required to yield significance of 0.05 at a 30% difference. […] Data from experiments in vivo were analyzed using the student’s t-test for TGI values and the Mann–Whitney U test for TGD using Excel and GraphPad Prism. Fisher’s exact test was used to probe significance of differences in response frequency.

[1] = 25 mg/kg, Q7Dx2, IV, SCID-beige female mice, Day 91
[2] = Day 14, 6.25 mg/kg Q7Dx2 IV, control Group 01
[3] = Day 14, 25 mg/kg Q7Dx2 IV, control Group 01
[4] = Day 80, 25 mg/kg Q7Dx2 IV, SCID-beige female mice
[5] = Day 82, 25 mg/kg Q7Dx2 IV, SCID-beige female mice
[6] = SCID-beige female mice, 25 mg/kg Q7Dx2 IV, Day 47, remaining animals
[7] = SCID-beige female mice, 25 mg/kg Q7Dx2 IV, Day 75
[8] = SCID-beige female mice, 25 mg/kg Q7Dx2 IV, Day 88, surviving animals
[9] = control Group 01, 6.25 mg/kg Q7Dx2 IV
[10] = control Group 01, 25 mg/kg Q7Dx2 IV

## Cc1c(Cl)c2c(Cl)c(C)c1-c1c(-c3ccc(F)cc3)sc3ncnc(c13)O[C@@H](C(=O)O)Cc1cc(ccc1OCc1ccnc(-c3ccc(OC[C@H]4COCCO4)cc3)n1)OC[C@@H](CN1CCN(C)CC1)O2 [Compound A-1747745.0]
[1]
  Xenograft AMO-1 (DSMZ) tumor volume Day 91, Mean: 22.37 mm³
  Xenograft AMO-1 (DSMZ) tumor volume Day 91, Median: 22.37 mm³
  Xenograft AMO-1 (DSMZ) tumor volume Day 91, individual animal: 22 mm³
AMO-1 (DSMZ) xenograft, SCID-beige mouse, 6.25 mg/kg IV Q7Dx2
  % Mortality: 100.00%
AMO-1 (DSMZ) xenograft, SCID-beige mouse, 25 mg/kg IV Q7Dx2
  % Mortality: 100.00%
AMO-1 (DSMZ) xenograft, SCID-beige mouse, 25 mg/kg IV Q7Dx2, day 21
  % BW Loss: -2% (day 21)
[2]
  Body Weight Day 14, % T/C (mean): 96.25%
  Body Weight Day 14, % T/C (median): 96.25%
[3]
  Body Weight Day 14, % T/C (mean): 98.12%
  Body Weight Day 14, % T/C (median): 98.12%
[4]
  Xenograft AMO-1 (DSMZ) tumor volume, Mean: 10.80 mm³
  Xenograft AMO-1 (DSMZ) tumor volume, Median: 10.80 mm³
  Xenograft AMO-1 (DSMZ) tumor volume, individual animal: 11 mm³
[5]
  Xenograft AMO-1 (DSMZ) tumor volume, Mean: 12.07 mm³
  Xenograft AMO-1 (DSMZ) tumor volume, Median: 12.07 mm³
  Xenograft AMO-1 (DSMZ) tumor volume, individual animal: 12 mm³
SCID-beige female mice, 25 mg/kg Q7Dx2 IV, Day 47
  Xenograft AMO-1 (DSMZ) tumor volume Day 47 (individual animal): 8 mm³
[6]
  Xenograft AMO-1 (DSMZ) tumor volume Day 47, Mean: 8.10 mm³
  Xenograft AMO-1 (DSMZ) tumor volume Day 47, Median: 8.10 mm³
[7]
  Xenograft AMO-1 (DSMZ) Day 75 tumor volume, Mean: 13.50 mm³
  Xenograft AMO-1 (DSMZ) Day 75 tumor volume, Median: 13.50 mm³
  Xenograft AMO-1 (DSMZ) Day 75 tumor volume, individual animals: 14 mm³
SCID-beige female mice, 25 mg/kg Q7Dx2 IV, Day 88
  Xenograft AMO-1 (DSMZ) Day 88 (tumor volume, individual animals): 15 mm³
[8]
  Xenograft AMO-1 (DSMZ) Day 88, Mean: 14.75 mm³
  Xenograft AMO-1 (DSMZ) Day 88, Median: 14.75 mm³
Group mean tumor volume of remaining animals, SCID-beige female mice, 25 mg/kg Q7Dx2 IV, Day 84
  Xenograft AMO-1 (DSMZ) (mm³) Day 84, Mean: 5.32 mm³
Group mean, Day 16, 3.13 mg/kg QDx1 IV
  Xenograft AMO-1 (DSMZ) (mm³) Day 16 Mean: 205.11 mm³
Group mean, Day 16, 6.25 mg/kg QDx1 IV
  Xenograft AMO-1 (DSMZ) (mm³) Day 16 Mean: 172.06 mm³
Group mean, Day 19, 3.13 mg/kg QDx1 IV
  Xenograft AMO-1 (DSMZ) (mm³) Day 19 Mean: 192.25 mm³
Group mean, Day 19, 6.25 mg/kg QDx1 IV
  Xenograft AMO-1 (DSMZ) (mm³) Day 19 Mean: 133.62 mm³
Group mean, 25 mg/kg Q7Dx2 IV, SCID-beige mice, Day 70
  Xenograft AMO-1 (DSMZ) (mm³) Day 70, Mean: 24.72 mm³
Group median tumor volume of remaining animals, SCID-beige female mice, 25 mg/kg Q7Dx2 IV, Day 84
  Xenograft AMO-1 (DSMZ) (mm³) Day 84, Median: 5.32 mm³
Group median, Day 16, 3.13 mg/kg QDx1 IV
  Xenograft AMO-1 (DSMZ) (mm³) Day 16 Median: 207.59 mm³
Group median, Day 16, 6.25 mg/kg QDx1 IV
  Xenograft AMO-1 (DSMZ) (mm³) Day 16 Median: 173.79 mm³
Group median, Day 19, 3.13 mg/kg QDx1 IV
  Xenograft AMO-1 (DSMZ) (mm³) Day 19 Median: 202.67 mm³
Group median, Day 19, 6.25 mg/kg QDx1 IV
  Xenograft AMO-1 (DSMZ) (mm³) Day 19 Median: 134.81 mm³
Group median, 25 mg/kg Q7Dx2 IV, SCID-beige mice, Day 70
  Xenograft AMO-1 (DSMZ) (mm³) Day 70, Median: 24.72 mm³
Individual animal tumor volume, SCID-beige female mice, 25 mg/kg Q7Dx2 IV, Day 84
  Xenograft AMO-1 (DSMZ) (mm³) Day 84: 5.32 mm³
6.25 mg/kg IV Q7Dx2
  % Weight Change (individual weights): 0.65%
  Weight, g (individual weights): 22.14 g
25 mg/kg IV Q7Dx2
  % Weight Change (individual weights): -1.91%
  Weight, g (individual weights): 22.00 g
Individual animals, Day 14, 3.13 mg/kg QDx1 IV
  Body Weight (g) Day 14: 22 g
Individual animals, Day 14, 6.25 mg/kg QDx1 IV
  Body Weight (g) Day 14: 22 g
Individual animals, 25 mg/kg Q7Dx2 IV, SCID-beige mice, Day 70
  Xenograft AMO-1 (DSMZ) (mm³) Day 70: 25 mm³
Day 14, 3.13 mg/kg QDx1 IV
  Body Weight Day 14, % T/C (mean): 102.98%
  Body Weight Day 14, % T/C (median): 102.98%
Day 14, 6.25 mg/kg QDx1 IV
  Body Weight Day 14, % T/C (mean): 102.98%
  Body Weight Day 14, % T/C (median): 102.98%
Day 16, 3.13 mg/kg QDx1 IV
  Xenograft AMO-1 Day 16 % T/C (mean): 61.23%
  Xenograft AMO-1 Day 16 % T/C (median): 62.33%
Day 16, 6.25 mg/kg QDx1 IV
  Xenograft AMO-1 Day 16 % T/C (mean): 51.36%
  Xenograft AMO-1 Day 16 % T/C (median): 52.18%
Day 19, 3.13 mg/kg QDx1 IV
  Xenograft AMO-1 Day 19 % T/C (mean): 44.28%
  Xenograft AMO-1 Day 19 % T/C (median): 51.55%
Day 19, 6.25 mg/kg QDx1 IV
  Xenograft AMO-1 Day 19 % T/C (mean): 30.78%
  Xenograft AMO-1 Day 19 % T/C (median): 34.29%
[9]
  % T/C (mean), Body Weight Day 21: 96.87%
  % T/C (median), Body Weight Day 21: 96.87%
[10]
  % T/C (mean), Body Weight Day 21: 96.25%
  % T/C (median), Body Weight Day 21: 96.25%
mouse, in vivo, iv, 3.13 mg/kg
  Relative to initial body wt., %: 0.00%
mouse, in vivo, iv, 6.25 mg/kg
  Body Weight (g) Day 14 (individual animals): 22 g
  Body Weight (g) Day 14, Mean: 22.00 g
  Body Weight (g) Day 14, Median: 22.00 g
  Body Weight (g) Day 21: 22 g
  Body Weight (g) Day 21 Mean: 22.14 g
  Body Weight (g) Day 21 Median: 22.14 g
mouse, in vivo, iv, 25 mg/kg
  Body Weight (g) Day 14 (individual animals): 22 g
  Body Weight (g) Day 14, Mean: 22.43 g
  Body Weight (g) Day 14, Median: 22.43 g
  Body Weight (g) Day 21: 22 g
  Body Weight (g) Day 21 Mean: 22.00 g
  Body Weight (g) Day 21 Median: 22.00 g
Individual animals, Day 16, 3.13 mg/kg QDx1 IV
  Xenograft AMO-1 (DSMZ) (mm³) Day 16: 195 mm³ and 171 mm³ and 227 mm³ and 217 mm³ and 219 mm³ and 212 mm³ and 203 mm³ and 196 mm³
Individual animals, Day 16, 6.25 mg/kg QDx1 IV
  Xenograft AMO-1 (DSMZ) (mm³) Day 16: 158 mm³ and 174 mm³ (2×) and 187 mm³ and 182 mm³ and 167 mm³ and 173 mm³ and 160 mm³
Individual animals, Day 19, 3.13 mg/kg QDx1 IV
  Xenograft AMO-1 (DSMZ) (mm³) Day 19: 210 mm³ and 196 mm³ and 181 mm³ and 173 mm³ and 128 mm³ and 213 mm³ and 209 mm³ and 227 mm³
Individual animals, Day 19, 6.25 mg/kg QDx1 IV
  Xenograft AMO-1 (DSMZ) (mm³) Day 19: 142 mm³ and 122 mm³ and 113 mm³ and 105 mm³ and 128 mm³ and 144 mm³ and 162 mm³ and 152 mm³
